Common to all, as to format: cell-based
One experiment has as its system SRC. As to the kind of experiment: High throughput kinase-activity mapping (HT-KAM) of treated cell extracts. The following applies: WiDr cells treated 8 hours with vemurafenib ± gefitinib or cetuximab; FIG. 1B. The protocol: (§1) For samples to be analyzed with the HT-KAM platform, cells at ˜85% confluency were washed three times with cold PBS and lysed with freshly prepared 1× cell lysis buffer (1 ml per 2.5×10^6 cells) (lOX Cell Lysis Buffer, Cell Signaling; cat. #9803) complemented with 1× of Halt Protease & Phosphatase (100×, ThermoScientific; cat. #1861281). Cell lysates were collected and spun down at 14,000 rpm for 15 min at 4° C. and supernatants stored at −80° C. For samples to be analyzed by western blot, cell lysates were prepared with RIPA lysis buffer (150 mM NaCl, 0.1% SDS, 1% Nonidet P40, 1% sodium deoxycholate and 10 mM sodium phosphate, pH 7.2) supplemented with protease and phosphatase inhibitors. After clearing by centrifugation at 12,000 rpm for 10 minutes at 4° C., the lysates were analyzed as described in the respective experiments.
This high throughput kinase-activity mapping (HT-KAM) platform uses arrays of peptides that act as sensors of phosphorylation activity (7). The phospho-catalytic signature of samples is established from simultaneously occurring ATP-consumption tests measured in the presence of individual peptides that are experimentally isolated from each other. […] Luminescence is acquired using the Synergy 2 Multi-Mode Microplate Reader from BioTek. Luminescence data are inversely correlated with the amount of kinase activity. […]

The next experiment deals with WiDr. As to the kind of experiment: Cell viability assay (CellTiter-Glo), GI50, 3-day treatment. The following applies: Homo sapiens, 72 h; WiDr (BRAF^V600E CRC); 50% growth inhibition after 3 days of treatment compared to control; read-out: GI50 concentrations. The method, then:
To assess the growth/survival response of cell lines to single or combinatorial drug treatments, we used CellTiter-Glo cell viability assay (Promega; cat #G7571). Cell culture and luminescence readouts were performed in 96- and 384-well plates after 3-day treatments. GI50 corresponds to the concentration of a given drug that causes 50% inhibition of cell growth (GI50). The effects of drug combinations on cell growth were assessed by calculating fold change in VEM-sensitivity and combination index (C.I.) that were experimentally measured from ≥9 individual datapoints around drugs' GI50, i.e. at GI50, 0.5×GI50, 2×GI50 concentrations of each drug per drug combination experiment. To address the particular effects of some drug treatments on some cell lines, the choice of experimental datapoints centered around drugs' GI50 effects was adjusted by including individual datapoints ranging from ≥GI25 to ≤GI75, leading to calculate fold change in VEM-sensitivity and combination index (C.I.) from 12 to 20 individual datapoints, as previously explained (7).
(In general: ATP-based viability assays read luminescence as a measure of living cells.)

For the next experiment, the system named is SFK. As to the kind of experiment: Western blot of SFK activation (Y419 phosphorylation). The following applies: BRAF^V600E CRC cell lines. The method, then:
as §1
For western-blot, samples were denatured by boiling in 1× Laemmli buffer and run on an 8% SDS-PAGE gel. After transfer onto a PVDF membrane and blocking with 3% BSA, the membranes were incubated with primary antibodies overnight at 4° C., washed 3 times with TBST (Tris-buffered saline containing 0.05% Tween-20), incubated with secondary antibodies for 1 hour at room temperature and developed using chemoluminescence (cat #32209 from Pierce).
Antibodies anti-HSP90 was procured from Santa Cruz Biotechnologies (H-114, cat #7947). […]
On the technique in general: A western blot detects proteins with antibodies after separation by electrophoresis.

This note sets out measurements from patent US20260115209A1, “COMBINATION THERAPY INCLUDING COX-2 INHIBITOR FOR THE TREATMENT OF CANCER” (THE REGENTS OF THE UNIVERSITY OF CALIFORNIA, priority 2022, published 2026).

Molecules are shown by their SMILES.

In the case of `CCCS(=O)(=O)Nc1ccc(F)c(C(=O)c2c[nH]c3ncc(-c4ccc(Cl)cc4)cc23)c1F` [vemurafenib, N-[3-[5-(4-chlorophenyl)-1H-pyrrolo[2,3-b]pyridine-3-carbonyl]-2,4-difluorophenyl]propane-1-sulfonamide], the SRC kinase activity entry in the experiment with SRC is on record as “most significantly increased kinase activity”. The GI50 in the experiment on WiDr was found to be 1500 nM. The “SFK activation (phosphorylation of Y419)” value in the experiment with SFK is listed as “increased SFK activation”.
